# Experimental data published in ChEMBL document CHEMBL5614413, “Design, synthesis and biological evaluation of amphiphilic benzopyran derivatives as potent antibacterial agents against multidrug-resistant bacteria” (Eur J Med Chem, 2024).
# The source made the active and inactive calls. No cut-off for these calls is given here.
# What was measured:
# Staphylococcus aureus [1] = test: (§1) Antibacterial activity against methicillin-resistant Staphylococcus aureus ATCC 43300 infected in sepsis mouse model assessed as decrease in IL-6 level in blood at 5 to 10 mg/kg pre-infected with bacteria for 1 hrs followed by continuous compound administration at 12 hrs intervals for 2 days; format: functional, organism-based; conditions: dose 5-10 mg/kg, time 2.0 day
# Staphylococcus aureus [2] = test: Antibacterial activity against methicillin-resistant Staphylococcus aureus ATCC 43300 infected in sepsis mouse model assessed as decrease in TNF-alpha level in blood at 5 to 10 mg/kg pre-infected with bacteria for 1 hrs followed by continuous compound administration at 12 hrs intervals for 2 days; format: functional, organism-based; conditions: dose 5-10 mg/kg, time 2.0 day
# Staphylococcus aureus [3] = test: Antibacterial activity against erythromycin-susceptible Staphylococcus aureus ATCC 25923; format: functional
# Staphylococcus aureus [4] = test: Antibacterial activity against penicillin-resistant Staphylococcus aureus ATCC 31007; format: functional
# Bacillus subtilis = test: Antibacterial activity against penicillin-susceptible Bacillus subtilis ATCC 9372; format: functional
# Klebsiella pneumoniae = test: Antibacterial activity against Klebsiella pneumoniae ATCC 10031; format: functional
# Acinetobacter baumannii = test: Antibacterial activity against Acinetobacter baumannii ATCC 19606; format: functional
# [5] = Selectivity index, ratio of HC50 for hemolytic activity in sheep RBC to MIC for antibacterial activity against methicillin-resistant Staphylococcus aureus ATCC 43300; format: toxicity; conditions: sheep red blood cells (erythrocytes), read-out: Selectivity Index
# Staphylococcus aureus [6] = test: Selectivity ratio of MBC for bactericidal activity against methicillin-resistant Staphylococcus aureus ATCC 43300 preincubated with 50% human plasma upto 6 hrs to MBC for bactericidal activity against methicillin-resistant Staphylococcus aureus ATCC 43300; format: functional
# Staphylococcus aureus [7] = test: Bactericidal activity against methicillin-resistant Staphylococcus aureus ATCC 43300 by Mueller Hinton broth based assay; format: functional; conditions: time <= 6 hrs
# Staphylococcus aureus [8] = test: Bactericidal activity against methicillin-resistant Staphylococcus aureus ATCC 43300 assessed as reduction in bacterial growth; format: functional, organism-based
# Staphylococcus aureus [9] = test: Disruption of preformed biofilm in methicillin-resistant Staphylococcus aureus ATCC 43300 assessed as eradication of biofilm at 64 microg/ml by crystal violet staining based analysis relative to control; format: functional; conditions: dose 64 µg/ml
# Cell membrane [10] = test: Disruption of cell membrane in methicillin-resistant Staphylococcus aureus ATCC 43300 assessed as appearance of broken surface by scanning electron microscopic analysis; format: cell membranes
# Cell membrane [11] = test: Disruption of cell membrane integrity in methicillin-resistant Staphylococcus aureus ATCC 43300 assessed as appearance of blue fluorescence by DAPI/PI staining based microscopic analysis; format: cell membranes
# Cell membrane [12] = test: Induction of cytoplasmic membrane depolarization in methicillin-resistant Staphylococcus aureus ATCC 43300 assessed as increase in fluorescence intensity by DiSC3(5) dye-based fluorescence assay; format: cell membranes
# Cell membrane [13] = test: Induction of cytoplasmic membrane permeabilization in methicillin-resistant Staphylococcus aureus ATCC 43300 assessed as increase fluorescence intensity at 16 microg/ml by PI staining based fluorescence analysis; format: cell membranes; conditions: dose 16.0 µg/ml
# Cell membrane [14] = test: Induction of cell membrane disruption in methicillin-resistant Staphylococcus aureus ATCC 43300 assessed as increase in DNA leakage; format: cell membranes
# Cell membrane [15] = test: Induction of cell membrane disruption in methicillin-resistant Staphylococcus aureus ATCC 43300 assessed as increase in protein leakage; format: cell membranes
# Staphylococcus aureus [16] = test: as §1, with “reduction” for “decrease”, “bacterial load” for “IL-6 level”, “kidney” for “blood”, “5” for “5 to 10”, “days (reference value: 6.75 log10CFU/g)” for “days”; format: functional; conditions: time 2 day
# Staphylococcus aureus [17] = test: as §1, with “reduction” for “decrease”, “bacterial load” for “IL-6 level”, “spleen” for “blood”, “5” for “5 to 10”, “days (reference value: 7.45 log10CFU/g)” for “days”; format: functional; conditions: time 2 day
# Staphylococcus aureus [18] = test: as §1, with “reduction” for “decrease”, “bacterial load” for “IL-6 level”, “at” for “at 5 to”, “days (reference value: 3.69 log10CFU/ml)” for “days”; format: functional; conditions: time 2 day
# Staphylococcus aureus [19] = test: as §1, with “reduction” for “decrease”, “bacterial load” for “IL-6 level”, “spleen” for “blood”, “at” for “at 5 to”, “days (reference value: 7.45 log10CFU/g)” for “days”; format: functional; conditions: time 2 day
# Staphylococcus aureus [20] = test: as §1, with “reduction” for “decrease”, “bacterial load” for “IL-6 level”, “kidney” for “blood”, “at” for “at 5 to”, “days (reference value: 6.75 log10CFU/g)” for “days”; format: functional; conditions: time 2 day
# Staphylococcus aureus [21] = test: as §1, with “reduction” for “decrease”, “number of surviving bacterial colonies” for “IL-6 level”, “5” for “5 to 10”, “days relative to control” for “days”; format: functional; conditions: time 2 day
# Staphylococcus aureus [22] = test: as §1, with “reduction” for “decrease”, “number of surviving bacterial colonies” for “IL-6 level”, “spleen” for “blood”, “5” for “5 to 10”, “days relative to control” for “days”; format: functional; conditions: time 2 day
# Staphylococcus aureus [23] = test: as §1, with “reduction” for “decrease”, “number of surviving bacterial colonies” for “IL-6 level”, “at” for “at 5 to”, “days relative to control” for “days”; format: functional; conditions: time 2 day
# Staphylococcus aureus [24] = test: as §1, with “reduction” for “decrease”, “number of surviving bacterial colonies” for “IL-6 level”, “liver” for “blood”, “at” for “at 5 to”, “days relative to control” for “days”; format: functional; conditions: time 2 day
# Staphylococcus aureus [25] = test: as §1, with “reduction” for “decrease”, “pathological damages” for “IL-6 level”, “liver” for “blood”, “days by H and E staining based analysis” for “days”; format: functional, organism-based; conditions: dose 5-10 mg/kg, time 2.0 day
# Staphylococcus aureus [26] = test: as §1, with “reduction” for “decrease”, “pathological damages” for “IL-6 level”, “kidney” for “blood”, “days by H and E staining based analysis” for “days”; format: functional, organism-based; conditions: dose 5-10 mg/kg, time 2.0 day
# Staphylococcus aureus [27] = test: as §1, with “reduction” for “decrease”, “pathological damages” for “IL-6 level”, “spleen” for “blood”, “days by H and E staining based analysis” for “days”; format: functional, organism-based; conditions: dose 5-10 mg/kg, time 2.0 day
# Staphylococcus aureus [28] = test: Selectivity ratio of MBC for bactericidal activity against methicillin-resistant Staphylococcus aureus ATCC 43300 in presence of 50% human blood to MBC for bactericidal activity against methicillin-resistant Staphylococcus aureus ATCC 43300; format: functional
# Staphylococcus aureus [29] = test: Selectivity ratio of MBC for bactericidal activity against methicillin-resistant Staphylococcus aureus ATCC 43300 in presence of 50% human serum to MBC for bactericidal activity against methicillin-resistant Staphylococcus aureus ATCC 43300; format: functional
# Staphylococcus aureus [30] = test: Bacteriostatic activity against methicillin-resistant Staphylococcus aureus ATCC 43300 assessed as inhibition of bacterial growth at 1 times of MIC measured after 24 hrs by time-kill kinetic analysis; format: functional, organism-based
# Staphylococcus aureus [31] = test: Bacteriostatic activity against methicillin-resistant Staphylococcus aureus ATCC 43300 assessed as inhibition of bacterial growth at 2 times of MIC measured after 24 hrs by time-kill kinetic analysis; format: functional, organism-based
# Staphylococcus aureus [32] = test: Bactericidal activity against methicillin-resistant Staphylococcus aureus ATCC 43300 assessed as bacterial killing at 16 microg/ml measured after 8 hrs by time-kill kinetics analysis relative to control; format: functional; conditions: dose 16 µg/ml
# Staphylococcus aureus [33] = test: Drug resistance, ratio of MIC for methicillin-resistant Staphylococcus aureus ATCC 43300 after 20 passages to MIC for methicillin-resistant Staphylococcus aureus ATCC 43300 during first exposure; format: functional
# Staphylococcus aureus [34] = test: Inhibition of biofilm formation in methicillin-resistant Staphylococcus aureus ATCC 43300; format: functional, organism-based; conditions: dose 2-32 µg/ml
structure (smiles),measurement,setting,value
CCCCN(CCCC)CCCNCCCOc1c(C(C)=O)ccc2c1C=CC(C)(CCC=C(C)C)O2 (configuration not stated),Activity,Staphylococcus aureus [1],Active
same,Activity,Staphylococcus aureus [2],Active
same,MIC,Staphylococcus aureus [3],2 µg/mL
same,MIC,Staphylococcus aureus [4],4 µg/mL
same,MIC,Bacillus subtilis,2 µg/mL
same,MIC,Klebsiella pneumoniae,4 µg/mL
same,MIC,Acinetobacter baumannii,2 µg/mL
same,selectivity ratio,[5],65.6
same,selectivity ratio,Staphylococcus aureus [6],<2
same,MBC,Staphylococcus aureus [7],8 µg/mL
same,Activity,Staphylococcus aureus [8],Dose-Dependent Effect
same,Activity,Staphylococcus aureus [9],>40%
same,Activity,Cell membrane [10],Active
same,Activity,Cell membrane [11],Active
same,Activity,Cell membrane [12],Dose-Dependent Effect
same,Activity,Cell membrane [13],Active
same,Activity,Cell membrane [14],Active
same,Activity,Cell membrane [15],Active
same,Activity,Staphylococcus aureus [16],2.09 log10CFU/g
same,Activity,Staphylococcus aureus [17],2 log10CFU/g
same,Activity,Staphylococcus aureus [18],1.46 log10CFU/ml
same,Activity,Staphylococcus aureus [19],2.24 log10CFU/g
same,Activity,Staphylococcus aureus [20],2.84 log10CFU/g
same,Activity,Staphylococcus aureus [21],91.8%
same,Activity,Staphylococcus aureus [22],99%
same,Activity,Staphylococcus aureus [23],95.9%
same,Activity,Staphylococcus aureus [24],99.8%
same,Activity,Staphylococcus aureus [25],Active
same,Activity,Staphylococcus aureus [26],Active
same,Activity,Staphylococcus aureus [27],Active
same,selectivity ratio,Staphylococcus aureus [28],2
same,selectivity ratio,Staphylococcus aureus [29],2
same,Activity,Staphylococcus aureus [30],Active
same,Activity,Staphylococcus aureus [31],Active
same,Activity,Staphylococcus aureus [32],100%
same,Ratio,Staphylococcus aureus [33],2
same,inhibition,Staphylococcus aureus [34],Dose-Dependent Effect
